Assay results from patent publication US8648066B2 (Exelixis, Inc., priority 2009, dated 2014).

Target: mTOR/GbL/Raptor (mTORC1) (Homo sapiens, UniProt P42345)
Assay: mTOR/GbL/Raptor (mTORC1) ELISA assay
Assay type: biochemical
Conditions: phosphorylation of 4E-BP1; 0.2 nM mTORC1, 10 μM ATP; read-out: IC50 in this assay (mTORC1 ELISA)
Procedure, shortened: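 Human mTORC1 (0.2 nM) phosphorylated 50 nM His-tagged 4E-BP1 with 10 µM ATP in HEPES pH 7.2 containing 10 mM MnCl2, 120 min at ambient temperature. Substrate was captured on Ni-chelate plates; phospho-4E-BP1 was detected by primary antibody and HRP secondary with luminescence.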

Structure (SMILES)	IC50
Cc1nc2ccc(-c3ccc4c(c3)CN(c3cc(C(F)(F)F)nc5ccccc35)CCO4)cc2[nH]1 [Example 99, 7-(2-methyl-1H-benzimidazol-6-yl)-4-[2-(trifluoromethyl)quinolin-4-yl]-2,3,4,5-tetrahydro-1,4-benzoxazepine]	50 to 250 nM
COc1ccc(-c2ccc3c(c2)CN(c2nc(CN(C)C)nc4c2CC(C)(C)CC4)CCO3)cn1 [Example 330, 1-(6,6-dimethyl-4-{7-[6-(methyloxy)pyridin-3-yl]-2,3-dihydro-1,4-benzoxazepin-4(5H)-yl}-5,6,7,8-tetrahydroquinazolin-2-yl)-N,N-dimethylmethanamine]	250 to 1000 nM
COC(=O)Nc1nc2ccc(-c3ccc4c(c3)CN(c3ncnc5ccc(OC)cc35)CCO4)cc2[nH]1 [Example 112, methyl (6-{4-[6-(methyloxy)quinazolin-4-yl]-2,3,4,5-tetrahydro-1,4-benzoxazepin-7-yl}-1H-benzimidazol-2-yl)carbamate]	250 to 1000 nM
CN1CCC(CNS(=O)(=O)c2cc(-c3ccc4c(c3)CN(c3ncnc5c3CC(C)(C)CC5)CCO4)cnc2N)CC1 [Example 381, 2-amino-5-[4-(6,6-dimethyl-5,6,7,8-tetrahydroquinazolin-4-yl)-2,3,4,5-tetrahydro-1,4-benzoxazepin-7-yl]-N-[(1-methylpiperidin-4-yl)methyl]pyridine-3-sulfonamide]	250 to 1000 nM
CCOc1ccc2ncnc(N3CCOc4ccc(-c5ccc6nc(C)[nH]c6c5)cc4C3)c2c1 [Example 159, 4-[6-(ethyloxy)quinazolin-4-yl]-7-(2-methyl-1H-benzimidazol-6-yl)-2,3,4,5-tetrahydro-1,4-benzoxazepine]	50 to 250 nM
COc1cncc(-c2ccc3c(c2)CN(c2ncnc4c2CC(C)(C)CC4)CCO3)c1 [Example 476, 4-(6,6-dimethyl-5,6,7,8-tetrahydroquinazolin-4-yl)-7-[5-(methyloxy)pyridin-3-yl]-2,3,4,5-tetrahydro-1,4-benzoxazepine]	250 to 1000 nM
Nc1nc2ccc(-c3ccc4c(c3)CN(c3nc(-c5ccccc5)nc5ccccc35)CCO4)cc2[nH]1 [Example 233, 6-[4-(2-phenylquinazolin-4-yl)-2,3,4,5-tetrahydro-1,4-benzoxazepin-7-yl]-1H-benzimidazol-2-amine]	50 to 250 nM
CN(c1cc(-c2ccc3c(c2)CN(c2ncnc4c2CC(C)(C)CC4)CCO3)cnc1Cl)S(C)(=O)=O [Example 624, N-{2-chloro-5-[4-(6,6-dimethyl-5,6,7,8-tetrahydroquinazolin-4-yl)-2,3,4,5-tetrahydro-1,4-benzoxazepin-7-yl]pyridin-3-yl}-N-methylmethanesulfonamide]	250 to 1000 nM
COc1ccc2c(N3CCOc4ccc(-c5cnc(N)nc5)cc4C3)nc(C)nc2c1 [Example 286, 5-{4-[2-methyl-7-(methyloxy)quinazolin-4-yl]-2,3,4,5-tetrahydro-1,4-benzoxazepin-7-yl}pyrimidin-2-amine]	≥ 2000 nM
CC1(C)CCc2ncnc(N3CCOc4ccc(-c5cnc(N)c(S(=O)(=O)NC[C@H]6C[C@H]7CNC[C@H]7C6)c5)cc4C3)c2C1 [Example 384, 2-amino-5-[4-(6,6-dimethyl-5,6,7,8-tetrahydroquinazolin-4-yl)-2,3,4,5-tetrahydro-1,4-benzoxazepin-7-yl]-N-[(3aR,5r,6aS)-octahydrocyclopenta[c]pyrrol-5-ylmethyl]pyridine-3-sulfonamide]	50 to 250 nM
CCNc1nc2ccc(-c3ccc4c(c3)CN(c3nc(NC)nc5ccccc35)CCO4)cc2[nH]1 [Example 269, 4-{7-[2-(ethylamino)-1H-benzimidazol-6-yl]-2,3-dihydro-1,4-benzoxazepin-4(5H)-yl}-N-methylquinazolin-2-amine]	250 to 1000 nM
c1ccc2c(N3CCOc4ccc(-c5ccc6scnc6c5)cc4C3)ccnc2c1 [Example 129, 7-(1,3-benzothiazol-5-yl)-4-quinolin-4-yl-2,3,4,5-tetrahydro-1,4-benzoxazepine]	250 to 1000 nM
C[C@H](CO)CS(=O)(=O)c1cc(-c2ccc3c(c2)CN(c2ncnc4c2CC(C)(C)CC4)CCO3)cnc1N [Example 299, (2R)-3-({2-amino-5-[4-(6,6-dimethyl-5,6,7,8-tetrahydroquinazolin-4-yl)-2,3,4,5-tetrahydro-1,4-benzoxazepin-7-yl]pyridin-3-yl}sulfonyl)-2-methylpropan-1-ol]	10 to 50 nM
CCc1c(C)ncnc1N1CCOc2ccc(-c3ccc4nc(C)[nH]c4c3)cc2C1 [Example 64, 4-(5-ethyl-6-methylpyrimidin-4-yl)-7-(2-methyl-1H-benzimidazol-6-yl)-2,3,4,5-tetrahydro-1,4-benzoxazepine]	50 to 250 nM
COc1c(OCC(C)C)ccc2c(N3CCOc4ccc(-c5ccc6nc(C)[nH]c6c5)cc4C3)ncnc12 [Example 166, 7-(2-methyl-1H-benzimidazol-6-yl)-4-{8-(methyloxy)-7-[(2-methylpropyl)oxy]quinazolin-4-yl}-2,3,4,5-tetrahydro-1,4-benzoxazepine]	250 to 1000 nM
COc1ccc2c(N3CCOc4ccc(-c5ccc6nc(N)[nH]c6c5)cc4C3)nc(C)nc2c1 [Example 539, 6-{4-[2-methyl-7-(methyloxy)quinazolin-4-yl]-2,3,4,5-tetrahydro-1,4-benzoxazepin-7-yl}-1H-benzimidazol-2-amine]	50 to 250 nM

Second part, the molecule after the results:

IC50	Structure (SMILES)
≤ 10 nM	CC1(C)CCc2ncnc(N3CCOc4ccc(-c5cnc6nc(N)[nH]c6c5)cc4C3)c2C1 [Example 177, 6-[4-(6,6-dimethyl-5,6,7,8-tetrahydroquinazolin-4-yl)-2,3,4,5-tetrahydro-1,4-benzoxazepin-7-yl]-1H-imidazo[4,5-b]pyridin-2-amine]
≤ 10 nM	CC(=O)OCc1nc(C)c(Cc2ccc(F)cc2)c(N2CCOc3ccc(-c4ccc5[nH]c(C)nc5c4)cc3C2)n1 [Example 311, {5-[4(fluorophenyl)methyl]-4-methyl-6-[7-(2-methyl-1H-benzimidazol-5-yl)-2,3-dihydro-1,4-benzoxazepin-4(5H)-yl]pyrimidin-2-yl}methyl acetate]
≤ 10 nM	Cc1nc2ccc(-c3ccc4c(c3)CN(c3ncnc(C)c3C(C)C)CCO4)cc2[nH]1 [Example 66, 7-(2-methyl-1H-benzimidazol-6-yl)-4-[6-methyl-5-(1-methylethyl)pyrimidin-4-yl]-2,3,4,5-tetrahydro-1,4-benzoxazepine]
≤ 10 nM	Cc1nc2ncc(-c3ccc4c(c3)CN(c3nc(CNC5CC5)nc5c3CC(C)(C)CC5)CCO4)cc2[nH]1 [Example 599, N-({6,6-dimethyl-4-[7-(2-methyl-1H-imidazo[4,5-b]pyridin-6-yl)-2,3-dihydro-1,4-benzoxazepin-4(5H)-yl]-5,6,7,8-tetrahydroquinazolin-2-yl}methyl)cyclopropanamine]
≤ 10 nM	COC(=O)Nc1nc2ncc(-c3ccc4c(c3)CN(c3ncnc5c3CC(C)(C)C=C5)CCO4)cc2[nH]1 [Example 583, methyl {6-[4-(6,6-dimethyl-5,6-dihydroquinazolin-4-yl)-2,3,4,5-tetrahydro-1,4-benzoxazepin-7-yl]-1H-imidazo[4,5-b]pyridin-2-yl}carbamate]
10 to 50 nM	Cc1cccc(Cc2c(C)ncnc2N2CCOc3ccc(-c4ccc5nc(C)[nH]c5c4)cc3C2)c1 [Example 82, 7-(2-methyl-1H-benzimidazol-6-yl)-4-{6-methyl-5-[(3-methylphenyl)methyl]pyrimidin-4-yl}-2,3,4,5-tetrahydro-1,4-benzoxazepine]
10 to 50 nM	CC1(C)CCc2ncnc(N3CCOc4ccc(-c5cnc(N)c(S(=O)(=O)N6C[C@H]7C[C@@H]6CN7)c5)cc4C3)c2C1 [Example 435, 2-[(1R,4R)-2,5-diazabicyclo[2.2.1]hept-2-ylsulfonyl]-5-[4-(6,6-dimethyl-5,6,7,8-tetrahydroquinazolin-4-yl)-2,3,4,5-tetrahydro-1,4-benzoxazepin-7-yl]pyridin-2-amine]
10 to 50 nM	CC1(C)CCc2ncnc(N3CCOc4ccc(-c5cnc(N)c(S(=O)(=O)NCC(N)=O)c5)cc4C3)c2C1 [Example 636, N~2~-({2-amino-5-[4-(6,6-dimethyl-5,6,7,8-tetrahydroquinazolin-4-yl)-2,3,4,5-tetrahydro-1,4-benzoxazepin-7-yl]pyridin-3-yl}sulfonyl)glycinamide]
≤ 10 nM	CC1(C)CCc2ncnc(N3CCOc4ccc(-c5ccc6[nH]c(C(F)F)nc6c5)cc4C3)c2C1 [Example 265]
10 to 50 nM	Cc1nc2ccc(-c3ccc4c(c3)CN(c3ncnc5c3CCC(C)(C)C5)CCO4)cc2[nH]1 [Example 95, 4-(7,7-dimethyl-5,6,7,8-tetrahydroquinazolin-4-yl)-7-(2-methyl-1H-benzimidazol-6-yl)-2,3,4,5-tetrahydro-1,4-benzoxazepine]
10 to 50 nM	Cc1nc2ccc(-c3ccc4c(c3)CN(c3ncnc(C)c3Cc3cc(F)cc(F)c3)CCO4)cc2[nH]1 [Example 91, 4-(5-[(3,5-difluorophenyl)methyl]-6-methylpyrimidin-4-yl}-7-(2-methyl-1H-benzimidazol-6-yl)-2,3,4,5-tetrahydro-1,4-benzoxazepine]
≤ 10 nM	Cc1nc2ccc(-c3ccc4c(c3)CN(c3ncnc(C)c3Cc3cccc(F)c3)CCO4)cc2[nH]1 [Example 72, 4-{5-[(3-fluorophenyl)methyl]-6-methylpyrimidin-4-yl}-7-(2-methyl-1H-benzimidazol-6-yl)-2,3,4,5-tetrahydro-1,4-benzoxazepine]
≤ 10 nM	CC1(C)CCc2nc(CC#N)nc(N3CCOc4ccc(-c5cnc6sc(N)nc6c5)cc4C3)c2C1 [Example 684, {4-[7-(2-amino[1,3]thiazolo[5,4-b]pyridin-6-yl)-2,3-dihydro-1,4-benzoxazepin-4(5H)-yl]-6,6-dimethyl-5,6,7,8-tetrahydroquinazolin-2-yl}acetonitrile]
≤ 10 nM	Cc1nc2ncc(-c3ccc4c(c3)CN(c3ncnc5c3C[C@H](C)[C@@H](C)C5)CCO4)cc2[nH]1 [Example 486, 4-[(6S,7S)-6,7-dimethyl-5,6,7,8-tetrahydroquinazolin-4-yl]-7-(2-methyl-1H-imidazo[4,5-b]pyridin-6-yl)-2,3,4,5-tetrahydro-1,4-benzoxazepine]
